Experimental data taken from US20220380829A1, “Method of Diagonosizing Pathogens and their Antimicrobial Susceptibility” (HANGZHOU DIAN MEDICAL LABORATORY CO., LTD., priority 2019, published 2022).
Starred links: 1 amine or outer side, 2 acyl side, 3 side chain; linkers in the order of their positions; H or OH if unused. Positions of bridges follow the written chain, without caps; N, C: chain ends. Non-standard residues stand in square brackets, D forms with d. Residues, ends and D or L forms follow the SMILES beside them. *: point of attachment. hTyr(3S-OH,4S-OH,3'-OSO3H) = N[C@H](C(=O)O)[C@H](O)[C@@H](O)c1ccc(O)c(OS(=O)(=O)O)c1; Orn(4R-OH,5R-OH) = O=C([C@H](C[C@@H](O)[C@@H](O)N[*:3])N[*:1])[*:2]; Pro(3S-OH,4S-Me) = C[C@H]1CN[C@H](C(=O)O)[C@H]1O; X1 = CCCCCOc1ccc(-c2cc(-c3ccc(C(=O)*)cc3)no2)cc1; Gln(3R-OH) = NC(=O)C[C@@H](O)[C@H](N)C(=O)O; Hyp = O=C(O)[C@@H]1C[C@@H](O)CN1

How the values were obtained:
Assay type in all cases: cell-based
Candida tropicalis = experiment: Broth microdilution (M27-A3, M27-S4), gold standard culture-based AST
Candida albicans = experiment: as above; details: for Results by broth microdilution method: R: number of resistant among 12 blinds; for Results by broth microdilution method: S: number of susceptible among 12 blinds
Experimental: Step 1. Sample collection and drug susceptibility verification: 120 clinical Candida albicans isolates were collected from 31 hospitals across china in a period between September 2015 and January 2019. All isolates were tested for drug susceptibility using broth microdilution method following the M27-A3 and M27-S4 guidelines of NCCLS, and the results were used as the gold standard (culture-based AST).

Acinetobacter baumannii = experiment: VITEK2 Compact AST (AST-N335 cards), gold standard culture-based AST
Experimental: Step 1. Drug susceptibility verification: The Acinetobacter baumannii isolates were tested for drug susceptibility using bioMérieux Vitek2 Compact System and AST-N335 cards, and the results were used as the gold standard (culture-based AST).

Enterococcus faecalis = experiment: VITEK2 Compact AST (AST-P639 cards), gold standard culture-based AST
Streptococcus pneumoniae = experiment: VITEK2 Compact AST (AST-GP68 cards) with penicillin disc diffusion, gold standard culture-based AST
Experimental: (§1) Step 1. Drug susceptibility verification: The Streptococcus pneumoniae isolates were tested for drug susceptibility using bioMérieux Vitek2 Compact System and AST-GP68 cards, and specifically, the susceptibility of penicillin was double checked by disc diffusion method (OXOID, CT0043B), and the combined results were used as the gold standard (culture-based AST).
as §1, with “Sample collection and drug” for “Drug”, “48 clinical” for “The”, “pneumoniae isolates were collected from 18 hospitals across china in a period between May 2017 and October 2019. All” for “pneumoniae”, “card,” for “cards,”

Klebsiella pneumoniae = experiment: VITEK2 Compact AST (AST-GN13/GN334 cards), gold standard culture-based AST; details: for Resistance profiles by VITEK2: R: number of resistant among 24 blinds; for Resistance profiles by VITEK2: S: number of susceptible among 24 blinds
Description: Step 1. Sample collection and drug susceptibility verification: 240 clinical Klebsiella pneumoniae isolates were collected from 23 hospitals across china in a period between January 2018 and March 2019.

[1] = Resistance profile classification A
[2] = Resistance profile classification B
[3] = Resistance profile classification C
[4] = Resistance profile classification D
[5] = Resistance profile classification G
[6] = Resistance profile classification H
[7] = Resistance profile classification I
[8] = Resistance profile classification J
[9] = Resistance profile classification K
[10] = Resistance profile classification L
[11] = Resistance profile classification M
[12] = Resistance profile classification S

Nc1nc(=O)[nH]cc1F [5-FC]
Resistance profiles by broth microdilution (the gold standard) (Candida tropicalis; blind-1): S | Resistance profiles by broth microdilution (the gold standard) (Candida tropicalis; blind-2): S | Resistance profiles by broth microdilution (the gold standard) (Candida tropicalis; blind-3): S | Resistance profiles by broth microdilution (the gold standard) (Candida tropicalis; blind-4): S | Resistance profiles by broth microdilution (the gold standard) (Candida tropicalis; blind-5): S | Resistance profiles by broth microdilution (the gold standard) (Candida tropicalis; blind-6): S

Nc1nc(=O)[nH]cc1F [5-Fluorocytosine]
Results by broth microdilution method: R (Candida albicans): 4 | Results by broth microdilution method: S (Candida albicans): 8

C[C@@H]1[C@H](O)[C@@H](C)/C=C/C=C/C=C/C=C/C=C/C=C/C=C/[C@H](O[C@@H]2O[C@H](C)[C@@H](O)[C@H](N)[C@@H]2O)C[C@@H]2O[C@](O)(C[C@@H](O)C[C@@H](O)[C@H](O)CC[C@@H](O)C[C@@H](O)CC(=O)O[C@H]1C)C[C@H](O)[C@H]2C(=O)O [AMB]
Resistance profiles by broth microdilution (the gold standard) (Candida tropicalis; blind-1): S | Resistance profiles by broth microdilution (the gold standard) (Candida tropicalis; blind-2): S | Resistance profiles by broth microdilution (the gold standard) (Candida tropicalis; blind-3): S | Resistance profiles by broth microdilution (the gold standard) (Candida tropicalis; blind-4): S | Resistance profiles by broth microdilution (the gold standard) (Candida tropicalis; blind-5): S | Resistance profiles by broth microdilution (the gold standard) (Candida tropicalis; blind-6): S

C[C@@H]1[C@H](O)[C@@H](C)/C=C/C=C/C=C/C=C/C=C/C=C/C=C/[C@H](O[C@@H]2O[C@H](C)[C@@H](O)[C@H](N)[C@@H]2O)C[C@@H]2O[C@](O)(C[C@@H](O)C[C@@H](O)[C@H](O)CC[C@@H](O)C[C@@H](O)CC(=O)O[C@H]1C)C[C@H](O)[C@H]2C(=O)O [Amphotericin B]
Results by broth microdilution method: R (Candida albicans): 0 | Results by broth microdilution method: S (Candida albicans): 12

CC[C@H](C)C[C@H](C)CCCCCCCCC(=O)N[C@H]1C[C@@H](O)[C@@H](NCCN)NC(=O)[C@@H]2[C@@H](O)CCN2C(=O)[C@H]([C@H](O)CCN)NC(=O)[C@H]([C@H](O)[C@@H](O)c2ccc(O)cc2)NC(=O)[C@@H]2C[C@@H](O)CN2C(=O)[C@H]([C@@H](C)O)NC1=O [CAS]
Resistance profiles by broth microdilution (the gold standard) (Candida tropicalis; blind-1): S | Resistance profiles by broth microdilution (the gold standard) (Candida tropicalis; blind-2): S | Resistance profiles by broth microdilution (the gold standard) (Candida tropicalis; blind-3): S | Resistance profiles by broth microdilution (the gold standard) (Candida tropicalis; blind-4): S | Resistance profiles by broth microdilution (the gold standard) (Candida tropicalis; blind-5): S | Resistance profiles by broth microdilution (the gold standard) (Candida tropicalis; blind-6): S

CC[C@H](C)C[C@H](C)CCCCCCCCC(=O)N[C@H]1C[C@@H](O)[C@@H](NCCN)NC(=O)[C@@H]2[C@@H](O)CCN2C(=O)[C@H]([C@H](O)CCN)NC(=O)[C@H]([C@H](O)[C@@H](O)c2ccc(O)cc2)NC(=O)[C@@H]2C[C@@H](O)CN2C(=O)[C@H]([C@@H](C)O)NC1=O [Caspofungin]
Results by broth microdilution method: R (Candida albicans): 0 | Results by broth microdilution method: S (Candida albicans): 12

OC(Cn1cncn1)(Cn1cncn1)c1ccc(F)cc1F [Fluconazole]
Results by broth microdilution method: R (Candida albicans): 2 | Results by broth microdilution method: S (Candida albicans): 10

CCC(C)n1ncn(-c2ccc(N3CCN(c4ccc(OCC5COC(Cn6cncn6)(c6ccc(Cl)cc6Cl)O5)cc4)CC3)cc2)c1=O (stereo not drawn) [ITR]
Resistance profiles by broth microdilution (the gold standard) (Candida tropicalis; blind-1): R | Resistance profiles by broth microdilution (the gold standard) (Candida tropicalis; blind-2): S | Resistance profiles by broth microdilution (the gold standard) (Candida tropicalis; blind-3): R | Resistance profiles by broth microdilution (the gold standard) (Candida tropicalis; blind-4): R | Resistance profiles by broth microdilution (the gold standard) (Candida tropicalis; blind-5): S | Resistance profiles by broth microdilution (the gold standard) (Candida tropicalis; blind-6): S

CCC(C)n1ncn(-c2ccc(N3CCN(c4ccc(OCC5COC(Cn6cncn6)(c6ccc(Cl)cc6Cl)O5)cc4)CC3)cc2)c1=O (stereo not drawn) [Itraconazole]
Results by broth microdilution method: R (Candida albicans): 2 | Results by broth microdilution method: S (Candida albicans): 10

CCCCCOc1ccc(-c2cc(-c3ccc(C(=O)N[C@H]4C[C@@H](O)[C@@H](O)NC(=O)[C@@H]5[C@@H](O)[C@@H](C)CN5C(=O)[C@H]([C@H](O)CC(N)=O)NC(=O)[C@H]([C@H](O)[C@@H](O)c5ccc(O)c(OS(=O)(=O)O)c5)NC(=O)[C@@H]5C[C@@H](O)CN5C(=O)[C@H]([C@@H](C)O)NC4=O)cc3)no2)cc1 [Micafungin] (X1-[Orn(4R-OH,5R-OH)]T[Hyp][hTyr(3S-OH,4S-OH,3'-OSO3H)][Gln(3R-OH)][Pro(3S-OH,4S-Me)]; lactam 1-C)
Results by broth microdilution method: R (Candida albicans): 0 | Results by broth microdilution method: S (Candida albicans): 12

C[C@@H](c1ncncc1F)[C@](O)(Cn1cncn1)c1ccc(F)cc1F [VOR]
Resistance profiles by broth microdilution (the gold standard) (Candida tropicalis; blind-1): R | Resistance profiles by broth microdilution (the gold standard) (Candida tropicalis; blind-2): S | Resistance profiles by broth microdilution (the gold standard) (Candida tropicalis; blind-3): R | Resistance profiles by broth microdilution (the gold standard) (Candida tropicalis; blind-4): R | Resistance profiles by broth microdilution (the gold standard) (Candida tropicalis; blind-5): S | Resistance profiles by broth microdilution (the gold standard) (Candida tropicalis; blind-6): S

C[C@@H](c1ncncc1F)[C@](O)(Cn1cncn1)c1ccc(F)cc1F [Voriconazole]
Results by broth microdilution method: R (Candida albicans): 2 | Results by broth microdilution method: S (Candida albicans): 10

CCN1CCN(C(=O)N[C@@H](C(=O)N[C@@H]2C(=O)N3[C@@H]2SC(C)(C)[C@@H]3C(=O)O)c2ccccc2)C(=O)C1=O [pipercillin, piperacillin]
Suscepibility of Acinetobacter baumannii to 12 antibacterial drugs (Acinetobacter baumannii; [1]): R | Suscepibility of Acinetobacter baumannii to 12 antibacterial drugs (Acinetobacter baumannii; [2]): R | Suscepibility of Acinetobacter baumannii to 12 antibacterial drugs (Acinetobacter baumannii; [3]): R | Suscepibility of Acinetobacter baumannii to 12 antibacterial drugs (Acinetobacter baumannii; [4]): R | Suscepibility of Acinetobacter baumannii to 12 antibacterial drugs (Acinetobacter baumannii; Resistance profile classification E): R | Suscepibility of Acinetobacter baumannii to 12 antibacterial drugs (Acinetobacter baumannii; Resistance profile classification F): R | Suscepibility of Acinetobacter baumannii to 12 antibacterial drugs (Acinetobacter baumannii; [5]): R | Suscepibility of Acinetobacter baumannii to 12 antibacterial drugs (Acinetobacter baumannii; [6]): R | Suscepibility of Acinetobacter baumannii to 12 antibacterial drugs (Acinetobacter baumannii; [7]): R | Suscepibility of Acinetobacter baumannii to 12 antibacterial drugs (Acinetobacter baumannii; [8]): R | Suscepibility of Acinetobacter baumannii to 12 antibacterial drugs (Acinetobacter baumannii; [9]): R | Suscepibility of Acinetobacter baumannii to 12 antibacterial drugs (Acinetobacter baumannii; [10]): R | Suscepibility of Acinetobacter baumannii to 12 antibacterial drugs (Acinetobacter baumannii; [11]): R | Suscepibility of Acinetobacter baumannii to 12 antibacterial drugs (Acinetobacter baumannii; Resistance profile classification N): R | Suscepibility of Acinetobacter baumannii to 12 antibacterial drugs (Acinetobacter baumannii; Resistance profile classification O): S | Suscepibility of Acinetobacter baumannii to 12 antibacterial drugs (Acinetobacter baumannii; Resistance profile classification P): S | Suscepibility of Acinetobacter baumannii to 12 antibacterial drugs (Acinetobacter baumannii; Resistance profile classification Q): S | Suscepibility of Acinetobacter baumannii to 12 antibacterial drugs (Acinetobacter baumannii; Resistance profile classification R): S | Suscepibility of Acinetobacter baumannii to 12 antibacterial drugs (Acinetobacter baumannii; [12]): S

CN[C@H](CC(C)C)C(=O)N[C@H]1C(=O)N[C@@H](CC(N)=O)C(=O)N[C@H]2C(=O)N[C@H]3C(=O)N[C@H](C(=O)N[C@H](C(=O)O)c4cc(O)cc(O)c4-c4cc3ccc4O)[C@H](O)c3ccc(c(Cl)c3)Oc3cc2cc(c3O[C@@H]2O[C@H](CO)[C@@H](O)[C@H](O)[C@H]2O[C@H]2C[C@](C)(N)[C@H](O)[C@H](C)O2)Oc2ccc(cc2Cl)[C@H]1O [vancomycin]
Susceptibility of Emterococcus faecalis to 11 antibacterial drugs (Enterococcus faecalis; [1]): S | Susceptibility of Emterococcus faecalis to 11 antibacterial drugs (Enterococcus faecalis; [2]): S | Susceptibility of Emterococcus faecalis to 11 antibacterial drugs (Enterococcus faecalis; [3]): S | Susceptibility of Emterococcus faecalis to 11 antibacterial drugs (Enterococcus faecalis; [4]): S | Susceptibility of Emterococcus faecalis to 11 antibacterial drugs (Enterococcus faecalis; Resistance profile classification F (first line so labelled, r12)): S | Susceptibility of Emterococcus faecalis to 11 antibacterial drugs (Enterococcus faecalis; Resistance profile classification F (second line so labelled, r13)): S | Susceptibility of Emterococcus faecalis to 11 antibacterial drugs (Enterococcus faecalis; [5]): S | Susceptibility of Emterococcus faecalis to 11 antibacterial drugs (Enterococcus faecalis; [6]): S | Susceptibility of Emterococcus faecalis to 11 antibacterial drugs (Enterococcus faecalis; [7]): S | Susceptibility of Emterococcus faecalis to 11 antibacterial drugs (Enterococcus faecalis; [8]): S | Susceptibility of Emterococcus faecalis to 11 antibacterial drugs (Enterococcus faecalis; [9]): S | Susceptibility of Emterococcus faecalis to 11 antibacterial drugs (Enterococcus faecalis; [10]): S | Susceptibility of Emterococcus faecalis to 11 antibacterial drugs (Enterococcus faecalis; [11]): S | Susceptibility of Emterococcus faecalis to 11 antibacterial drugs (Enterococcus faecalis; [12]): S | Blind 1 by AST (Streptococcus pneumoniae; Blind 1): S | blind 2 by AST (Streptococcus pneumoniae; blind 2): S

Amoxicillin-clavulanate
Resistance profiles by VITEK2: R (Klebsiella pneumoniae): 16 | Resistance profiles by VITEK2: S (Klebsiella pneumoniae): 8

Ampicillin-sulbactam
Resistance profiles by VITEK2: R (Klebsiella pneumoniae): 15 | Resistance profiles by VITEK2: S (Klebsiella pneumoniae): 9

Cefoperazone-sulbactam
Resistance profiles by VITEK2: R (Klebsiella pneumoniae): 13 | Resistance profiles by VITEK2: S (Klebsiella pneumoniae): 11

Piperacillin-tazobactam
Resistance profiles by VITEK2: R (Klebsiella pneumoniae): 13 | Resistance profiles by VITEK2: S (Klebsiella pneumoniae): 11
